Here are results for 24 compounds from patent publication US12527774B2, “Estrogen-related receptor alpha modulators” (LEAD PHARMA HOLDING B.V., priority 2019, dated 2026).

Sequence of ERRα ligand binding domain (ERRα-LBD) (P11474 193-421): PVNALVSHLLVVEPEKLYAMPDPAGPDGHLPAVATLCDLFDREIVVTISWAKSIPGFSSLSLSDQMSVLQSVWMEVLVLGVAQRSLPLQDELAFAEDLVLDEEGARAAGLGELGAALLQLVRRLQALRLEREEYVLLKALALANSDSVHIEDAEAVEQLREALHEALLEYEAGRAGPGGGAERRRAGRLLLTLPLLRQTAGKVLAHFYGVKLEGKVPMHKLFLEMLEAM

One experiment addresses ERRα ligand binding domain (ERRα-LBD) (Homo sapiens (Human), UniProt P11474). Put plainly: ERRα AlphaScreen Assay. In kind it is biochemical. The conditions noted are these: disruption of binding of ERRα-LBD protein to biotin-PGC1α-3 co-activator peptide. The method, boiled down: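 Disruption of co-activator binding read by AlphaScreen: compounds in triplicate, 1% DMSO, Tris pH 7.5 buffer, room temperature. Bacterially expressed 6His-SUMO-ERRα-LBD at 0.81 nM with beads for 1 h, then 15 nM biotinylated PGC1α peptide for 2 h. IC50 from four-parameter fits, averaged as pIC50.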
On to `COc1cc(C2CC(=O)Nc3n[nH]nc32)ccc1OCc1ccc(N)cc1C(F)(F)F` (stereo not drawn) [Example 136, 7-(4-{[4-amino-2-(trifluoromethyl)phenyl]methoxy}-3-methoxyphenyl)-2H,4H,5H,6H, 7H-[1,2,3]triazolo[4,5-b]pyridin-5-one], for which the “mean pIC50” value is on record as no less than 8.

`COc1cc(C2CC(=O)Nc3n[nH]cc32)ccc1OCc1ccc(N(C)C)cc1C(F)(F)F` (stereo not drawn) [Example 138, 4-(4-{[4-(dimethylamino)-2-(trifluoromethyl)phenyl]methoxy}-3-methoxyphenyl)-2H,4H,5H,6H, 7H-pyrazolo[3,4-b]pyridin-6-one]: the “mean pIC50” value is reported as no less than 8.

The experiment is the same for the next values; noted with them: disruption of binding of ERRα-LBD protein to biotin-PGC1α-3 co-activator peptide; read-out: mean pIC50 (converted).
As to `COc1cc(C2CC(=O)Nc3n[nH]cc32)ccc1COc1ccc(C(F)F)cc1C(F)F` (stereo not drawn) [Example 116, 4-(4-{[2,4-bis(difluoromethyl)phenoxy]methyl}-3-methoxyphenyl)-2H,4H,5H,6H,7H-pyrazolo[3,4-b]pyridin-6-one], the IC50 is 10 to 100 nM.

As for `O=C1CC(c2ccc(OCc3ccccc3C(F)(F)F)c([N+](=O)[O-])c2)c2c[nH]nc2N1` (stereo not drawn) [Example 67, 4-(3-nitro-4-{[2-(trifluoromethyl)phenyl]methoxy}phenyl)-2H,4H,5H,6H,7H-pyrazolo[3,4-b]pyridin-6-one], the IC50 was 100 to 1000 nM.

For `O=C1CC(c2ccc(OCc3ccccc3C(F)(F)F)c(OC(F)(F)F)c2)c2c[nH]nc2N1` (stereo not drawn) [Example 69, 4-[3-(trifluoromethoxy)-4-{[2-(trifluoromethyl)phenyl]methoxy}phenyl]-2H,4H,5H, 6H, 7H-pyrazolo[3,4-b]pyridin-6-one], the IC50 is 10 to 100 nM.

As for `COc1cc(C2CC(=O)Nc3n[nH]cc32)ccc1OCc1cc(C(F)(F)F)ccc1C(F)(F)F` (stereo not drawn) [Example 14, 4-(4-{[2,5-bis(trifluoromethyl)phenyl]methoxy}-3-methoxyphenyl)-2H,4H,5H,6H, 7H-pyrazolo[3,4-b]pyridin-6-one], the IC50 was 10 to 100 nM.

With `COc1cc(Br)c(COc2ccc(-c3cc(=O)[nH]c4n[nH]cc34)cc2OC)cc1OC` [Example 184, 4-{4-[(2-bromo-4,5-dimethoxyphenyl)methoxy]-3-methoxyphenyl}-2H,6H, 7H-pyrazolo[3,4-b]pyridin-6-one], the IC50 was 100 to 1000 nM.

`COc1cc(C2CC(=O)Nc3n[nH]cc32)ccc1OCc1ccccc1Br` (stereo not drawn) [Example 4, 4-{4-[(2-bromophenyl)methoxy]-3-methoxyphenyl}-2H,4H,5H,6H, 7H-pyrazolo[3,4-b]pyridin-6-one]: the IC50 is 10 to 100 nM.

Regarding `COc1cc(C2CC(=O)Nc3n[nH]cc32)ccc1OCc1ccc(C#N)cc1C(F)(F)F` (stereo not drawn) [Example 105, 4-[(2-methoxy-4-{6-oxo-2H,4H,55H, 6H, 7H-pyrazolo[3,4-b]pyridin-4-yl}phenyl)methoxy]-3-(trifluoromethyl)benzonitrile], the IC50 was 10 to 100 nM.

As for `COc1cc(C2CC(=O)Nc3n[nH]cc32)ccc1COc1ccc(C(F)(F)F)cc1C(F)F` (stereo not drawn) [Example 117, 4-(4-{[2-(difluoromethyl)-4-(trifluoromethyl)phenoxy]methyl}-3-methoxyphenyl)-2H,4H,5H,6H, 7H-pyrazolo[3,4-b]pyridin-6-one], the IC50 was 10 to 100 nM.

For `COc1cc(C2CC(=O)Nc3n[nH]cc32)ccc1OCc1ccccc1Cl` (stereo not drawn) [Example 2, 4-{4-[(2-chlorophenyl)methoxy]-3-methoxyphenyl}-2H,4H,5H,6H,7H-pyrazolo[3,4-b]pyridin-6-one], the IC50 was 10 to 100 nM.

Take `COc1cc(C2CC(=O)Nc3n[nH]nc32)ccc1OCc1ccc(N)cc1C(F)(F)F` (single isomer, unassigned; (-)) [Example 206, (−)-7-(4-{[4-amino-2-(trifluoromethyl)phenyl]methoxy}-3-methoxyphenyl)-2H,4H,5H,6H,7H-[1,2,3]triazolo[4,5-b]pyridin-5-one]: the IC50 was 10 to 100 nM.

Take `COc1cc(C2CC(=O)Nc3ncsc32)ccc1OCc1ccccc1C(F)(F)F` (stereo not drawn) [Example 88, 7-(3-methoxy-4-{[2-(trifluoromethyl)phenyl]methoxy}phenyl)-4H,5H,6H,7H-[1,3]thiazolo[4,5-b]pyridin-5-one]: the IC50 is 100 to 1000 nM.

For `COc1cc(C2CC(=O)Nc3c[nH]nc32)ccc1OCc1ccccc1C(F)(F)F` (stereo not drawn) [Example 87, 7-(3-methoxy-4-{[2-(trifluoromethyl)phenyl]methoxy}phenyl)-2H,4H,5H,6H, 7H-pyrazolo[4,3-b]pyridin-5-one], the IC50 was 10 to 100 nM.

Take `COc1ccc([N+](=O)[O-])cc1COc1ccc(-c2cc(=O)[nH]c3n[nH]cc23)cc1OC` [Example 182, 4-{3-methoxy-4-[(2-methoxy-5-nitrophenyl)methoxy]phenyl}-2H,6H,7H-pyrazolo[3,4-b]pyridin-6-one]: the IC50 is 10 to 100 nM.

Consider `COc1ccc(C(F)(F)F)c(COc2ccc(C3CC(=O)Nc4n[nH]cc43)cc2OC)c1` (stereo not drawn) [Example 35, 4-(3-methoxy-4-{[5-methoxy-2-(trifluoromethyl)phenyl]methoxy}phenyl)-2H,4H,5H,6H,7H-pyrazolo[3,4-b]pyridin-6-one], for which the IC50 is 10 to 100 nM.

For the compound `COC(=O)c1cc(C2CC(=O)Nc3n[nH]cc32)ccc1OCc1ccccc1C(F)(F)F` (stereo not drawn) [Example 65, methyl 5-{6-oxo-2H,4H,5H,6H,7H-pyrazolo[3,4-b]pyridin-4-yl}-2-{[2-(trifluoromethyl)phenyl]methoxy}benzoate], the IC50 was 10 to 100 nM.

In the case of `COC(=O)c1ccccc1COc1ccc(C2CC(=O)Nc3n[nH]cc32)cc1OC` (stereo not drawn) [Example 26, methyl 2-(2-methoxy-4-{6-oxo-2H,4H,5H,6H,7H-pyrazolo[3,4-b]pyridin-4-yl}phenoxymethyl)benzoate], the IC50 was 10 to 100 nM.

Take `O=C1CC(c2ccc(OCc3ccccc3C(F)(F)F)c(Br)c2)c2c[nH]nc2N1` (stereo not drawn) [Example 70, 4-(3-bromo-4-{[2-(trifluoromethyl)phenyl]methoxy}phenyl)-2H,4H,5H,6H, 7H-pyrazolo[3,4-b]pyridin-6-one]: the IC50 was 10 to 100 nM.

With `COCCCOc1cc(C2CC(=O)Nc3n[nH]cc32)ccc1OCc1ccccc1C(F)(F)F` (stereo not drawn) [Example 163, 4-[3-(3-methoxypropoxy)-4-{[2-(trifluoromethyl)phenyl]methoxy}phenyl]-2H,4H,5H,6H,7H-pyrazolo[3,4-b]pyridin-6-one], the IC50 is 10 to 100 nM.

For `COc1cc(C2CC(=O)Nc3n[nH]cc32)ccc1OCc1ccc(CC(=O)O)cc1C(F)(F)F` (stereo not drawn) [Example 151, 2-{4-[(2-methoxy-4-{6-oxo-2H,4H,5H,6H, 7H-pyrazolo[3,4-b]pyridin-4-yl}phenoxy)methyl]-3-(trifluoromethyl)phenyl}acetic acid], the IC50 was 100 to 1000 nM.

In the case of `COc1cc(-c2cc(=O)[nH]c3[nH]ccc23)ccc1OCc1ccccc1C(F)(F)F` [Example 168, 4-(3-methoxy-4-{[2-(trifluoromethyl)phenyl]methoxy}phenyl)-1H,6H, 7H-pyrrolo[2,3-b]pyridin-6-one], the IC50 was 100 to 1000 nM.

For `O=C1CC(c2ccc(OCc3ccccc3C(F)(F)F)c(C(=O)OCCO)c2)c2c[nH]nc2N1` (stereo not drawn) [Example 132, 2-hydroxyethyl 5-{6-oxo-2H,4H,5H,6H, 7H-pyrazolo[3,4-b]pyridin-4-yl}-2-{[2-(trifluoromethyl)phenyl]methoxy}benzoate], the IC50 was 100 to 1000 nM.

For the compound `CN(C)c1cc(OCc2ccccc2C(F)(F)F)ccc1C1CC(=O)Nc2n[nH]cc21` (stereo not drawn) [Example 162, 4-[2-(dimethylamino)-4-{[2-(trifluoromethyl)phenyl]methoxy}phenyl]-2H,4H,5H,6H, 7H-pyrazolo[3,4-b]pyridin-6-one], the IC50 was 100 to 1000 nM.
